Data on three molecules can be found in patent publication US20160015770A1, “COMPOSITIONS FOR TREATMENT OF RETINAL DETACHMENT” (THE REGENTS OF THE UNIVERSITY OF MICHIGAN, priority 2013, published 2016).

The subject of assay [1] is detached retina. As to the kind of experiment: Experimental retinal detachment, western blot of autophagy markers (Atg5, Atg5-12, LC3-II) in retina. It is filed as in vivo. The following applies: rat, 50 μg subretinal at time of detachment, 7 days, vs detachments alone. The procedure: All experiments were performed in accordance with the ARVO Statement for the Use of Animals in Ophthalmic and Vision Research and the guidelines established by the University Committee on Use and Care of Animals of the University of Michigan. Detachments were created in adult male Brown-Norway rats (300-400 g; Charles River Laboratories, Wilmington, Mass.) as described previously. Briefly, rodents were anesthetized with a 50:50 mix of ketamine/xylazine, and pupils were dilated with topical phenylephrine (2.5%) and tropicamide (1%). A 20-gauge microvitreoretinal blade was used to create a sclerotomy 2 mm posterior to the limbus, carefully avoiding lens damage. A subretinal injector (Glaser, 32-gauge tip; BD Ophthalmic Systems, Franklin Lakes, N.J.) was introduced through the sclerotomy into the vitreous cavity and then through a peripheral retinotomy into the subretinal space. Sodium hyaluronate (10 mg/mL, Healon OVD; Abbott Medical Optics, Uppsala, Sweden) was slowly injected to detach the neurosensory retina from the underlying RPE. In all experiments, approximately one third to one half of the neurosensory retina was detached. Detachments were created in the left eye. The right eye served as the control, with all the steps of the procedure performed except for introduction of the subretinal injector and injection of the sodium hyaluronate. […]
Retinas from experimental eyes with detachment (detached portion of retina only) and control eyes without detachment were dissected from the RPE-choroid, homogenized, and lysed in buffer containing 10 mM HEPES (pH 7.6), 0.5% IgEPal, 42 mM KCl, 1 mM phenylmethylsulfonyl fluoride, 1 mM EDTA, 1 mM EGTA, 1 mM dithiothreitol, 5 mM MgCl2, and one tablet of protease inhibitors per 10 mL buffer (Complete Mini; Roche Diagnostics GmbH, Madison, Wis.). […] The protein concentration of the supernatant was then determined (DC Protein Assay kit; Bio-Rad Laboratories, Hercules, Calif.). The protein samples were separated on SDS-polyacrylamide gels (Tris-HCl Ready Gels; Bio-Rad Laboratories). […]

Assay [2] relates to detached retina. The following applies: 7 days, compared to untreated detached retinas, prior work (ref 12); cited from earlier work.
For another assay, the target named is T1, calpain 1 (Mus musculus, UniProt O35350).
T1 construct: endogenous in cells; host or cells: 661W mouse photoreceptor cell line
T1 sequence (O35350 1-713): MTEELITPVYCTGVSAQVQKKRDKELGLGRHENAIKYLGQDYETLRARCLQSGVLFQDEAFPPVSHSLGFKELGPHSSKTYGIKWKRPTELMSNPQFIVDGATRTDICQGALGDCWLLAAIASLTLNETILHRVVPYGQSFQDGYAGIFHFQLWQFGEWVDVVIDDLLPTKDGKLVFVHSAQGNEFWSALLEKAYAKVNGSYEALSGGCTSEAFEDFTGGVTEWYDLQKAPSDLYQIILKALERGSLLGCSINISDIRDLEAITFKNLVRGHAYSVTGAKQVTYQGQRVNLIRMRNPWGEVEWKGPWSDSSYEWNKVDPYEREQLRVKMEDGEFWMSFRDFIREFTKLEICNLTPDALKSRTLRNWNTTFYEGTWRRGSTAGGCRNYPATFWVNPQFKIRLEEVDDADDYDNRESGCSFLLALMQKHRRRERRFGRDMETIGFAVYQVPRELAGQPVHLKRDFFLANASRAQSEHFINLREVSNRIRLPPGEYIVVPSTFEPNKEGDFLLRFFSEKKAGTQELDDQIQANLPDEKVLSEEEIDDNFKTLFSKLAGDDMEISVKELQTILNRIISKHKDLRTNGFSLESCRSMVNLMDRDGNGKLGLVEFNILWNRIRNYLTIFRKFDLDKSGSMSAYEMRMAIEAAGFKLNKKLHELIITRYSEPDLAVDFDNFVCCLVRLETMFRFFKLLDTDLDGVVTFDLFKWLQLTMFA
T1 sequence (O88456 1-268 partner): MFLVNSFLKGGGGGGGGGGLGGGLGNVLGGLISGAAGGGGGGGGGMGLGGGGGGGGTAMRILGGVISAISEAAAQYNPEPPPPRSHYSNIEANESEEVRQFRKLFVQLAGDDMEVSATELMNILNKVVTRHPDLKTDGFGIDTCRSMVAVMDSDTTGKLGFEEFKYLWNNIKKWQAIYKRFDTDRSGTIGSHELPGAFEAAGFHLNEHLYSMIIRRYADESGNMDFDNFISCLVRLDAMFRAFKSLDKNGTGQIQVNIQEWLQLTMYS
As to the kind of experiment: Western blot of calpain 1 specific cleaved alpha-spectrin in 661W cells treated with Fas activating antibody. It is filed as cell-based. The following applies: 24 hours, inhibitor added 1 hour before Fas activating antibody, compared to Fas activation alone. On the procedure: The 661W photoreceptor cell line was generously provided by Dr. Muayyad Al-Ubaidi (Department of Cell Biology, University of Oklahoma Health Sciences Center, Oklahoma City, Okla.). The 661W cell line was maintained in Dulbecco's modified Eagle's medium containing 10% fetal bovine serum, 300 mg/L glutamine, 32 mg/L putrescine, 40 μL/L β-mercaptoethanol, and 40 μg/L of both hydrocortisone 21-hemisuccinate and progesterone. The media also contained penicillin (90 units/mL) and streptomycin (0.09 mg/mL). Cells were grown at 37° C. in a humidified atmosphere of 5% CO2 and 95% air.
Retinas from experimental eyes with detachment (detached portion of retina only) and control eyes without detachment were dissected from the RPE-choroid, homogenized, and lysed in buffer containing 10 mM HEPES (pH 7.6), 0.5% IgEPal, 42 mM KCl, 1 mM phenylmethylsulfonyl fluoride, 1 mM EDTA, 1 mM EGTA, 1 mM dithiothreitol, 5 mM MgCl2, and one tablet of protease inhibitors per 10 mL buffer (Complete Mini; Roche Diagnostics GmbH, Madison, Wis.). 661W cells were plated at 150,000 cells per well in six-well culture dishes in growth media. After 24 hours, the cells were washed one time with warmed PBS solution and then placed in growth media without fetal bovine serum. Depending on experimental conditions, 500 ng/mL Fas activating antibody (BD Biosciences, San Jose, Calif.) and various calpain inhibitors including MDG-28170 (Sigma, St. Louis, Mo.), MG-101 (Sigma, St. Louis, Mo.), calpeptin (Santa Cruz Biotechnology, Santa Cruz, Calif.) or equal volume of DMSO was added. Calpain inhibitors were added 1 hour prior to the addition of Fas activating antibody. The cells were incubated for various lengths of time and then lysed and homogenized in lysis buffer. The homogenates were incubated on ice and centrifuged at 22,000 g at 4° C. for 60 minutes. The protein concentration of the supernatant was then determined (DC Protein Assay kit; Bio-Rad Laboratories, Hercules, Calif.). The protein samples were separated on SDS-polyacrylamide gels (Tris-HCl Ready Gels; Bio-Rad Laboratories). After electrophoretic separation, the proteins were transferred onto polyvinylidene fluoride membranes (Immobilon-P; Millipore, Billerica, Mass.). Membranes were then immunoblotted with antibodies according to the manufacturer's instructions. The following antibodies were used: LC3b (Cell Signaling, Beverly, Mass.), Atg5 (Abgent, San Diego, Calif.), Atg12 (Cell Signaling, Beverly, Mass.), calpain 1 (Cell Signaling, Beverly, Mass.), alpha-spectrin (Santa Cruz Biotechnology, Santa Cruz, Calif.), actin (Sigma, St. Louis, Mo.), and GAPDH (Abcam, Cambridge, Mass.).
After determining calpain 1 levels, it was looked to correlate this with calpain activity. […]

Non-standard residues stand in square brackets, D forms with d. Residues, ends and D or L forms follow the SMILES beside them. *: point of attachment. Nle = CCCC[C@H](N)C(=O)O; Cbz = O=C(OCc1ccccc1)*

Consider `CO/C1=C\C(C)=C\[C@@H](C)[C@@H](O)[C@@H](C)C/C(C)=C/C=C/[C@H](OC)[C@@H]([C@@H](C)[C@@H](O)[C@H](C)[C@@]2(O)C[C@@H](O)[C@H](C)[C@@H](C(C)C)O2)OC1=O` [Bafilomycin-a], for which the results for the “Atg5-12 levels in retina” value in the assay with detached retina [1] and in the assay with detached retina [1] (listed as Baf-a) were “did not appear to be any increase” and “no significant difference”, respectively. Further, the “LC3-II level in retina” value with detached retina [2] was “remain elevated”. Turning to `CC(C)[C@H](NC(=O)OCc1ccccc1)C(=O)N[C@H](C=O)Cc1ccccc1` [MDG-28170] (Cbz-Val-Phe-aldehyde), at calpain 1, the cleaved alpha-spectrin levels entry is “decreased”. For the molecule `CCCC[C@@H](C=O)NC(=O)[C@H](CC(C)C)NC(=O)[C@H](CC(C)C)NC(C)=O` [MG-101] (Ac-Leu-Leu-[Nle]-aldehyde), the cleaved alpha-spectrin levels result at calpain 1 is “decreased”.
